Reference: patent US20090088439A1, “Diazinane Compounds” (priority 2007, published 2009)

Assays:
[1] = biological target: T1, GABAB(1A,2) receptor heterodimer (Homo sapiens, UniProt O75899+Q9UBS5); test: GTPγS35 radioligand filtration-binding assay for determination of PAM potency; format: biochemical; conditions: membranes of CHO-K1 cells expressing GABABR1a/GABABR2; concentration required to reduce GABA's EC50 by 50%; PAM at 10, 1, 0.1 and 0.01 μM; read-out: Mean (EC50 derived) PAM EC50
T1 construct: expressed in transfected cells; membrane preparation
Source text: The effect of GABA in an automated GTPγS^35 radioligand filtration-binding assay in CHO cells expressing the GABAB(1A,2) receptor heterodimer was studied in the presence or absence of the positive allosteric modulator test compounds. […]
(§1) The GABAB receptor is a G-protein coupled receptor. Binding of a ligand activates the receptor leading to recruitment of G-protein and a substitution of the G-protein bound GDP to GTP. The G-protein becomes active. The G-protein is inactivated by hydrolysis of GTP to GDP. G-proteins are membrane bound and therefore present in membrane preparations.
(§2) In the GTPγS^35 assay, GTP is not present but instead GTPγS^35 where one of the phosphate groups are substituted to a sulphur group which cannot be hydrolysed. Upon activation of the receptor, radiolabelled GTPγS^35 replaces the GDP. The complex cannot be inactivated and the radiolabelled complex is accumulating. At the end of the assay, the reaction mixture is filtered through a membrane-binding filter. Excess GTPγS^35 is removed by washing and the membrane bound S^35, which correlates to the degree of receptor activation, is measured with a β-Liquid Scintillation Counter.
GABABR1a and GABABR2 were cloned from human brain cDNA and subcloned into pCI-Neo (Promega) and pALTER-1 (Promega), respectively.
In order to optimise the Kozak consensus sequence of GABABR2, in situ mutagenesis was performed using the Altered Sites Mutagenesis kit according to manufacturer's instruction (Promega) with the following primer,
5′-[…]-3′. The optimised GABABR2 was then restricted from pALTER-1 with Xho I+Kpn I and subcloned into the mammalian expression vector pcDNA3.1(−)/Zeo (Invitrogen) to produce the final construct, pcDNA3.1(−)/Zeo-GABABR2.
For generation of stable cell lines, CHO-K1 cells were grown in Nut mix F-12 (Ham) media supplemented with 10% FBS, 100 U/ml Penicillin and 100 μg/ml Streptomycin at 37° C. in a humidified CO2-incubator. The cells were detached with 1 mM EDTA in PBS and 1 million cells were seeded in 100 mm petri dishes. After 24 hours the culture media was replaced with OptiMEM and incubated for 1 hour in a CO2-incubator.
For generation of a cell line expressing the GABABR1a/GABABR2 heterodimer, GABABR1a plasmid DNA (4 μg) GABABR2 plasmid DNA (4 μg) and lipofectamine (24 μl) were mixed in 5 ml OptiMEM and incubated for 45 minutes at room temperature. The cells were exposed to the transfection medium for 5 hours, which then was replaced with culture medium. The cells were cultured for an additional 10 days before selection agents (300 μg/ml hygromycin and 400 μg/ml geneticin) were added. Twenty-four days after transfection, single cell sorting into 96-well plates by flow cytometry was performed using a FACS Vantage SE (Becton Dickinson, Palo Alto, Calif.). After expansion, the GABAB receptor functional response was tested by measuring the GABAB receptor dependent release of intracellular calcium in a fluorescence imaging plate reader (FLIPR). The clone with the highest functional response was collected, expanded and then subcloned by single cell sorting. The clonal cell line with the highest peak response in the FLIPR was used in the present study.
GTPγS^35 radioligand filtration-binding assays were performed using an automated workstation at 30° C. for 1 hour in assay buffer (50 mM HEPES, 40 mM NaCl, 1 mM MgCl2×6H2O, 30 μg/mL Saponin, pH 7.4 at RT) containing 0.025 μg/μL of membrane protein (prepared from the cell line described above), 10 μM GDP and 0.55 nCi/μL GTPγS^35 in a final volume of 60 μL. The reaction was started by the addition of serially diluted GABA (final start concentration 1 mM dilution factor 3) in the presence or absence of four concentrations (final conc 10, 1, 0.1 and 0.01 μM) of PAM. The reaction was terminated and membranes collected by addition of ice-cold wash buffer (50 mM Tris-HCl, 5 mM MgCl2×6H2O, 50 mM NaCl, pH 7.4 at 4° C.) followed by rapid filtration under vacuum through a MultiScreen HTS 384 FB filter plate. […]

[2] = biological target: T2, GABABR1a/GABABR2 heterodimer (Homo sapiens, UniProt O75899+Q9UBS5); test: GTPγS35 radioligand filtration-binding assay for determination of agonist potency; format: biochemical; conditions: membranes of CHO K1 Flp-In cells expressing GABABR1a/GABABR2; compound alone
T2 construct: expressed in transfected cells; membrane preparation
Protocol: The potency and efficacy of the compounds acting as agonists at the GABAB receptor was also determined in a automated GTPγS^35 radioligand filtration-binding assay.
as §1, §2
The human GABABR1a was subcloned into pIRESneo3 (Clontech) using GABABR1a construct as a template (refseqN NM001470). GABABR2 was subcloned into pCDNA5/FRT (Invitrogen) using GABABR2 construct as a template (refseqN NM005458). The Kozak sequence GCCACC was introduced before the start codon in both constructs.
For generation of stable cell lines, CHO K1 Flp-In cells (Invitrogen) were grown in DMEM/F 12 1:1 media supplemented with 10% FBS at 37° C. in a humidified CO2-incubator. The cells were detached with Accutase and 1.5 million cells were seeded into T75 flasks. After 24 h, transfection of the cells were performed with the GABABR2 construct. For generation of cell lines expressing GABABR2, GABABR2 plasmid (1 μg) and pOG44 from Invitrogen (9 μg) were mixed with 30 μl Lipofectamine 2000 in 600 μl OptiMEM for 20 minutes. The cells were exposed to transfection medium for 5 hours and was then replaced with culture medium. After 2 days 0.5 mg/ml Hygromycin were added to culture medium. The cells were cultured for an additional 10 days to establish a stable cell mix expressing GABABR2. For generation of a cell line expressing the GABABR1a/GABABR2 heterodimer, GABABR1a plasmid DNA (8 μg) and Lipofectamine (30 μl) were mixed in 600 μl OptiMEM and incubated for 20 minutes before added to CHO-Flp-In cells expressing GABABR2. After 2 days additional selection agent was added (0.8 mg/ml Geneticin). The cells were cultured for another 10 days to generate a stable mixed population expressing the GABABR1a/GABABR2 heterodimer. The cell line was analyzed by GTPγS^35 assay with GABA as agonist.
GTPγS^35 radioligand filtration-binding assays were performed using an automated workstation at 30° C. for 1 hour in assay buffer (50 mM HEPES, 40 mM NaCl, 1 mM MgCl2×6H2O, 30 μg/mL Saponin, pH 7.4 at RT) containing 0.025 μg/μL of membrane protein (prepared from the cell line described above), 10 μM GDP and 0.55 nCi/μL GTPγS^35 in a final volume of 60 μL. The reaction was started by the addition of compounds (GABA was always included as a positive control), start concentration 100 μM dilution factor 3. The reaction was terminated and membranes collected by addition of ice-cold wash buffer (50 mM Tris-HCl, 5 mM MgCl2×6H2O, 50 mM NaCl, pH 7.4 at 4° C.) followed by rapid filtration under vacuum through a MultiScreen HTS 384 FB filter plate. Repeated washing of the filters with ice-cold wash buffer washed the unbound radioligand away. The filter plates were dried for 1½-2 hours at 50° C., then 8 μL scintillation liquid was added per well followed by incubation at RT for at least 20 minutes before bound radioactivity was determined using a β-Liquid Scintillation Counter (1450 Microbeta Trilux, Wallac, Finland)
100% activation (max) is calculated as the mean value for wells containing 1 mM GABA. […]

T2 sequence (Q9UBS5 15-961 limits assumed): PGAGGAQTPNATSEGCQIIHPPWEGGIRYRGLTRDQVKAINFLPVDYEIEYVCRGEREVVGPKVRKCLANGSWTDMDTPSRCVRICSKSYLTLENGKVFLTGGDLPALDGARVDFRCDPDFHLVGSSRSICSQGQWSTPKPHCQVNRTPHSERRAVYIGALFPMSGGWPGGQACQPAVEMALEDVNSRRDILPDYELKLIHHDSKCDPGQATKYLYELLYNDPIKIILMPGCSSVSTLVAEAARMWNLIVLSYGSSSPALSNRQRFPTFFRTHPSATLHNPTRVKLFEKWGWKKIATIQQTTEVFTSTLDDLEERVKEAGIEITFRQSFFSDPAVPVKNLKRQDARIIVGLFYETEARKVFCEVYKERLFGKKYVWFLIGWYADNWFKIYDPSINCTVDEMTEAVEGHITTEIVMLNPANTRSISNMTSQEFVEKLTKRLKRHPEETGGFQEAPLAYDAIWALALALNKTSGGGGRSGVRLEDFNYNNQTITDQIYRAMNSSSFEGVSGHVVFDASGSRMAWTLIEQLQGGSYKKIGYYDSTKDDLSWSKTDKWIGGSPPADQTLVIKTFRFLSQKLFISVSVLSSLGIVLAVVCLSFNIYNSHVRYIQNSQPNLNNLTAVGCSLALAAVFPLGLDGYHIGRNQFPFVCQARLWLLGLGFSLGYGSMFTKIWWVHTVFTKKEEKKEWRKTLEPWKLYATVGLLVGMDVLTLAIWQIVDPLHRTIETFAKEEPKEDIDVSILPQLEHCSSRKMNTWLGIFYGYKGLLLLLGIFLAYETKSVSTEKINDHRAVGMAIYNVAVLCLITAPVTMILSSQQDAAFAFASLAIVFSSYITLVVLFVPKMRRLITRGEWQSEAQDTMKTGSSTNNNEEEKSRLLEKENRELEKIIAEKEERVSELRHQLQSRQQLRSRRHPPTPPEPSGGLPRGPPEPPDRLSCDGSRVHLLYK
T2 sequence (O75899 42-941): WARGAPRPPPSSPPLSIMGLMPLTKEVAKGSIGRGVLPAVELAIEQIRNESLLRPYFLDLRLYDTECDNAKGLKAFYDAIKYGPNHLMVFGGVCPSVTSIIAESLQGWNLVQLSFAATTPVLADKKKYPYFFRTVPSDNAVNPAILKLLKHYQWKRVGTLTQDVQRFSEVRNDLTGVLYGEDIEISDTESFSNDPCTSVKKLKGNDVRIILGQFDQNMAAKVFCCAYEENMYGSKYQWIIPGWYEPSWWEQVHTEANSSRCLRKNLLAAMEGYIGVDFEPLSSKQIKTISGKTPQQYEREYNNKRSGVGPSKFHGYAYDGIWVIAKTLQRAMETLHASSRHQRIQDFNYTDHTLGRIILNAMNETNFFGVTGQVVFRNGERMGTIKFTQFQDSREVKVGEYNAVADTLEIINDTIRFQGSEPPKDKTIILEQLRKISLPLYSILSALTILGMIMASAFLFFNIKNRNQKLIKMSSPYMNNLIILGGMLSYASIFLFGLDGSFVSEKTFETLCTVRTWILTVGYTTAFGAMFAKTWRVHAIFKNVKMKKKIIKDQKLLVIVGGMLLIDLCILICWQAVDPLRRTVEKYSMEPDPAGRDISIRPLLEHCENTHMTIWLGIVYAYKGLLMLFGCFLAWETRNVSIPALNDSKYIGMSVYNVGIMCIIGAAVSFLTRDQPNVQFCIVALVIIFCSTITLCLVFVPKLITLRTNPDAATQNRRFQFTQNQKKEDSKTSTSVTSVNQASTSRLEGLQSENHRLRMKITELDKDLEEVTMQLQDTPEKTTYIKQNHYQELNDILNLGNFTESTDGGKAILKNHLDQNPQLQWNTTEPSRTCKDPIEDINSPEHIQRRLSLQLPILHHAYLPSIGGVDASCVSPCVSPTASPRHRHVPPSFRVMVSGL
T1 sequence (Q9UBS5 15-961 limits assumed): as the sequence (Q9UBS5 15-961 limits assumed) above
T1 sequence (O75899 42-941): as the sequence (O75899 42-941) above

CC(C)(C)C(=O)Cn1c(=O)n(Cc2ccc(Cl)cc2)c(=O)c2nccnc21 [Example 5, 3-(4-chlorobenzyl)-1-(3,3-dimethyl-2-oxobutyl)pteridine-2,4(1H,3H)-dione]
EC50 [1]: 2900 nM

C[Si](C)(C)CCn1c(=O)n(Cc2ccc(Cl)cc2)c(=O)c2nccnc21 [Example 3, 3-(4-chlorobenzyl)-1-[2-(trimethylsilyl)ethyl]pteridine-2,4(1H,3H)-dione]
EC50 [1]: 600 nM

COc1ccc(Cn2c(=O)n(Cc3ccc(Cl)cc3)c(=O)c3nccnc32)cc1 [Example 9, 3-(4-chlorobenzyl)-1-(4-methoxybenzyl)pteridine-2,4(1H,3H)-dione]
EC50 [1]: 7000 nM

O=c1c2nc3c(nc2n(CCn2cccc2)c(=O)n1Cc1ccc(Cl)cc1)CCCC3 [Example 17, 3-(4-chlorobenzyl)-1-[2-(1H-pyrrol-1-yl)ethyl]-6,7,8,9-tetrahydrobenzo[g]pteridine-2,4(1H,3H)-dione]
EC50 [2]: 1600 nM

O=c1c2nccnc2n(CC2CCCCC2)c(=O)n1Cc1ccc(Cl)cc1 [Example 4, 3-(4-chlorobenzyl)-1-(cyclohexylmethyl)pteridine-2,4(1H,3H)-dione]
EC50 [1]: 600 nM

O=c1c2nccnc2n(Cc2ccccc2)c(=O)n1Cc1ccc(Cl)cc1 [Example 7, 1-benzyl-3-(4-chlorobenzyl)pteridine-2,4(1H,3H)-dione]
EC50 [1]: 5100 nM

CCCn1c(=O)n(Cc2ccc(Cl)cc2)c(=O)c2nc(CC)c(CC)nc21 [Example 13, 3-(4-chlorobenzyl)-6,7-diethyl-1-propylpteridine-2,4(1H,3H)-dione]
EC50 [2]: 800 nM

CCCn1c(=O)n(Cc2ccc(Cl)cc2)c(=O)c2c1nc1c([n+]2[O-])CCCC1 [Example 21, 3-(4-chlorobenzyl)-1-propyl-6,7,8,9-tetrahydrobenzo[g]pteridine-2,4(1H,3H)-dione 5-oxide]
EC50 [2]: 7700 nM

CCCn1c(=O)n(Cc2ccc(Cl)cc2)c(=O)c2nccnc21 [Example 2, 3-(4-chlorobenzyl)-1-propylpteridine-2,4(1H,3H)-dione]
EC50 [1]: 4300 nM

CCCn1c(=O)n(Cc2ccc(Cl)cc2)c(=O)c2nc3c(nc21)CCC3 [Example 22, 3-(4-chlorobenzyl)-1-propyl-7,8-dihydro-1H-cyclopenta[g]pteridine-2,4(3H,6H)-dione]
EC50 [2]: 3700 nM

N#Cc1cccc(Cn2c(=O)n(Cc3ccc(Cl)cc3)c(=O)c3nc4c(nc32)CCCC4)c1 [Example 16, 3-{[3-(4-chlorobenzyl)-2,4-dioxo-3,4,6,7,8,9-hexahydrobenzo[g]pteridin-1(2H)-yl]methyl}benzonitrile]
EC50 [2]: 1000 nM

O=C(c1ccccc1)c1ccc(Cn2c(=O)n(Cc3ccc(Cl)cc3)c(=O)c3nccnc32)cc1 [Example 10, 1-(4-benzoylbenzyl)-3-(4-chlorobenzyl)pteridine-2,4(1H,3H)-dione]
EC50 [1]: 800 nM

COc1ccc(Cn2c(=O)n(Cc3ccc(Cl)cc3)c(=O)c3nccnc32)c(OC)c1 [Example 1, 3-(4-chlorobenzyl)-1-(2,4-dimethoxybenzyl)pteridine-2,4(1H,3H)-dione]
EC50 [1]: 6000 nM

6-tert-butyl-3-(4-chlorobenzyl)-1-propylpteridine-2,4(1H,3H)-dione and 7-tert-butyl-3-(4-chlorobenzyl)-1-propylpteridine-2,4(1H,3H)-dione [Example 23]
EC50 [2]: 2200 nM

CCCn1c(=O)n(Cc2ccc(Cl)cc2)c(=O)c2nc3c(nc21)C(C)CC3C (mixture of isomers) [Example 12, 3-(4-chlorobenzyl)-6,8-dimethyl-1-propyl-7,8-dihydro-1H-cyclopenta[g]pteridine-2,4(3H,6H)-dione]
EC50 [2]: 1400 nM

C=CCn1c(=O)n(Cc2ccc(Cl)cc2)c(=O)c2nc3c(nc21)CCCC3 [Example 14, 1-allyl-3-(4-chlorobenzyl)-6,7,8,9-tetrahydrobenzo[g]pteridine-2,4(1H,3H)-dione]
EC50 [2]: 1600 nM

O=c1c2nccnc2n(Cc2ccc(Cl)cc2)c(=O)n1Cc1ccc(Cl)cc1 [Example 8, 1,3-bis(4-chlorobenzyl)pteridine-2,4(1H,3H)-dione]
EC50 [1]: 2400 nM

O=c1c2nc3c(nc2n(CC(O)C(F)(F)F)c(=O)n1Cc1ccc(Cl)cc1)CCCC3 (centres unmarked) [Example 19, 3-(4-chlorobenzyl)-1-(3,3,3-trifluoro-2-hydroxypropyl)-6,7,8,9-tetrahydrobenzo[g]pteridine-2,4(1H,3H)-dione]
EC50 [2]: 1300 nM

CC(C)(C)C(=O)Cn1c(=O)n(Cc2ccc(Cl)cc2)c(=O)c2nc3c(nc21)CCCC3 [Example 18, 3-(4-chlorobenzyl)-1-(3,3-dimethyl-2-oxobutyl)-6,7,8,9-tetrahydrobenzo[g]pteridine-2,4(1H,3H)-dione]
EC50 [2]: 500 nM

O=c1c2nccnc2n(CCc2ccccc2)c(=O)n1Cc1ccc(Cl)cc1 [Example 11, 3-(4-chlorobenzyl)-1-(2-phenylethyl)pteridine-2,4(1H,3H)-dione]
EC50 [1]: 1300 nM
